The subject of one assay is Lac5. The settings on record: 100 mM acetate, 2.5 mM copper sulfate, O2; listed optimum pH 4.0, 50 °C.
The subject of another assay is Lac9. The note with it: 100 mM acetate, 2.5 mM copper sulfate, O2; listed optimum pH 4.8, 55 °C.
The subject of a further assay is T1, Lac5-6.
T1 construct: gene Lac5 (GenBank PP987286)
The note with it: 100 mM acetate, 2.5 mM copper sulfate, O2; listed optimum pH 4.0, 55 °C.

A further assay relates to Lac1. The settings on record: 100 mM acetate, 2.5 mM copper sulfate, O2; listed optimum pH 5.0, 55 °C.
For another assay, the system named is Lac3. The settings on record: 100 mM acetate, 2.5 mM copper sulfate, O2; listed optimum pH 4.6, 60 °C.
The test system of another assay is Lac4. The note with it: 100 mM acetate, 2.5 mM copper sulfate, O2; listed optimum pH 4.0, 55 °C.

Each structure is given as a SMILES string.

One may read the Km as the substrate concentration at which the rate is half of its maximum.

Consider `CCn1c(=NN=c2sc3cc(S(=O)(=O)O)ccc3n2CC)sc2cc(S(=O)(=O)O)ccc21` [ABTS, 2,2′‐azinobis(3‑ethylbenzo‐6‑thiazolinesulfonic acid)], for which the Michaelis-Menten constant (Km) in the assay on Lac5 is 63 µM; in the assay with Lac9 it was 101 µM; with Lac5-6, 55 µM; with Lac1, 112 µM; with Lac3, 99 µM; with Lac4, 426 µM.
